This assay deals with GDP-bound KRAS protein (aa 1-169), containing both G12D and C118A amino acid substitutions (Homo sapiens, UniProt P01116, C118A/G12D). Kind of assay: KRAS G12D Coupled Nucleotide Exchange Assay.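 Also: IC50 obtained by fitting the AlphaScreen signal with a four-parameter logistic curve.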 The class given is biochemical. The following applies: 2 h compound pre-incubation, SOS-mediated nucleotide exchange, cRAF AlphaScreen readout. Background: Bead proximity is the source of the signal in Alpha formats.
GDP-bound KRAS protein (aa 1-169), containing both G12D and C118A amino acid substitutions, sequence (P01116 1-169 isoform P01116-2 G12D/C118A): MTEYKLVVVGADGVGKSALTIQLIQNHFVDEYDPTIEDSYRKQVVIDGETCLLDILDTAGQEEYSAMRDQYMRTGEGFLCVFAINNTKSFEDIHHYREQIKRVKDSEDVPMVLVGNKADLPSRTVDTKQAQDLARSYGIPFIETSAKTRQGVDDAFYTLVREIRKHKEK

The record followed here is patent publication US20250059179A1, “Heterocyclic Compounds and Methods of Use” (AMGEN INC., priority 2021, published 2025).

`Nc1nc2c(-c3c(Cl)cc4c(N5CCNCC5)nc(N5CC(N6CC(F)C6)C5)nc4c3F)cccc2s1` [Example 90, 4-[6-chloro-8-fluoro-2-[3-(3-fluoroazetidin-1-yl)azetidin-1-yl]-4-piperazin-1-yl-quinazolin-7-yl]-1,3-benzothiazol-2-amine]: the “Avg 2 h Coupled Exchange IC50” value is 1010 nM.

With `Nc1nc2c(-c3c(Cl)cc4c(N5CCNCC5)nc(N5CCC6(CCN6)C5)nc4c3F)cccc2s1` (stereo not shown) [Example 109, 4-[6-chloro-8-fluoro-4-piperazin-1-yl-2-[1,7-diazaspiro[3.4]octan-7-yl]quinazolin-7-yl]-1,3-benzothiazol-2-amine], the “Avg 2 h Coupled Exchange IC50” value came to 2170 nM.

With `C[C@@H]1[C@@H](N)CN1c1nc(N2CCNCC2)c2cc(Cl)c(-c3cccc4sc(N)nc34)c(F)c2n1` [Example 80, 4-[2-[(2R,3S)-3-amino-2-methyl-azetidin-1-yl]-6-chloro-8-fluoro-4-piperazin-1-yl-quinazolin-7-yl]-1,3-benzothiazol-2-amine], the “Avg 2 h Coupled Exchange IC50” value came to 377 nM.

For the compound `CNC1(C)CN(c2nc(N3CCNCC3)c3cc(Cl)c(-c4cccc5sc(N)nc45)c(F)c3n2)C1` [Example 77, 4-[6-chloro-8-fluoro-2-[3-methyl-3-(methylamino)azetidin-1-yl]-4-piperazin-1-yl-quinazolin-7-yl]-1,3-benzothiazol-2-amine], the “Avg 2 h Coupled Exchange IC50” value stood at 201 nM.

On to `Nc1nc2c(-c3c(Cl)cc4c(N5CCNCC5)nc(N5CC6CNC(C6)C5)nc4c3F)cccc2s1` (stereo not shown) [Example 114, 4-[6-chloro-8-fluoro-4-piperazin-1-yl-2-[3,6-diazabicyclo[3.2.1]octan-3-yl]quinazolin-7-yl]-1,3-benzothiazol-2-amine], for which the “Avg 2 h Coupled Exchange IC50” value worked out at 2770 nM.

In the case of `Nc1nc2c(-c3c(Cl)cc4c(N5CCNCC5)nc(N5CC(N6CCS(=O)(=O)CC6)C5)nc4c3F)cccc2s1` [Example 111, 4-[6-chloro-2-[3-(1,1-dioxo-1,4-thiazinan-4-yl)azetidin-1-yl]-8-fluoro-4-piperazin-1-yl-quinazolin-7-yl]-1,3-benzothiazol-2-amine], the “Avg 2 h Coupled Exchange IC50” value turned out to be 2300 nM.

The term IC50 denotes the concentration at which inhibition is half-maximal. For `CN(C)C1(C)CN(c2nc(N3CCNCC3)c3cc(Cl)c(-c4cccc5sc(N)nc45)c(F)c3n2)C1` [Example 76], for the setting “read-out: Avg 2 h Coupled Exchange IC50”, the IC50 came out at 172 nM.

As to `CN1C(=O)CC2(CN(c3nc(N4CCNCC4)c4cc(Cl)c(-c5cccc6sc(N)nc56)c(F)c4n3)C2)n2ccnc21` [Example 113, 1′-[7-(2-amino-1,3-benzothiazol-4-yl)-6-chloro-8-fluoro-4-piperazin-1-yl-quinazolin-2-yl]-8-methyl-spiro[6H-imidazo[1,2-a]pyrimidine-5,3′-azetidine]-7-one], the “Avg 2 h Coupled Exchange IC50” value turned out to be 2480 nM.

On to `CON(C)C1CN(c2nc(N3CCNCC3)c3cc(Cl)c(-c4cccc5sc(N)nc45)c(F)c3n2)C1` [Example 104, 4-[6-chloro-8-fluoro-2-[3-[methoxy(methyl)amino]azetidin-1-yl]-4-piperazin-1-yl-quinazolin-7-yl]-1,3-benzothiazol-2-amine], for which the “Avg 2 h Coupled Exchange IC50” value worked out at 1730 nM.

Take `CN(C1CN(c2nc(N3CCNCC3)c3cc(Cl)c(-c4cccc5sc(N)nc45)c(F)c3n2)C1)[C@@H]1CCOC1` [Example 89]: the “Avg 2 h Coupled Exchange IC50” value is 895 nM.

Take `CN1CCC2CN(c3nc(N4CCNCC4)c4cc(Cl)c(-c5cccc6sc(N)nc56)c(F)c4n3)CC21` (stereo not shown) [Example 98, 4-(6-chloro-8-fluoro-2-(1-methylhexahydropyrrolo[3,4-b]pyrrol-5(1H)-yl)-4-(piperazin-1-yl)quinazolin-7-yl)benzo[d]thiazol-2-amine]: the “Avg 2 h Coupled Exchange IC50” value was found to be 1310 nM.

Regarding `Nc1nc2c(-c3c(Cl)cc4c(N5CCNCC5)nc(N5CC6(CC(O)c7nccn76)C5)nc4c3F)cccc2s1` (stereo not shown) [Example 108, 1′-[7-(2-amino-1,3-benzothiazol-4-yl)-6-chloro-8-fluoro-4-piperazin-1-yl-quinazolin-2-yl]spiro[6,7-dihydropyrrolo[1,2-a]imidazole-5,3′-azetidine]-7-ol], the “Avg 2 h Coupled Exchange IC50” value was determined as 1970 nM.

As to `Nc1nc2c(-c3c(Cl)cc4c(N5CCNCC5)nc(NCC(O)c5cncs5)nc4c3F)cccc2s1` (stereo not shown) [Example 106, 2-[[7-(2-amino-1,3-benzothiazol-4-yl)-6-chloro-8-fluoro-4-piperazin-1-yl-quinazolin-2-yl]amino]-1-thiazol-5-yl-ethanol], the “Avg 2 h Coupled Exchange IC50” value turned out to be 1900 nM.

For the compound `Nc1nc2c(-c3c(Cl)cc4c(N5CCNCC5)nc(N5C[C@@H]6NCC[C@@H]65)nc4c3F)cccc2s1` [Example 115, 4-[6-chloro-2-[(1S,5S)-2,6-diazabicyclo[3.2.0]heptan-6-yl]-8-fluoro-4-piperazin-1-yl-quinazolin-7-yl]-1,3-benzothiazol-2-amine], the “Avg 2 h Coupled Exchange IC50” value was determined as 2860 nM.

On to `Nc1nc2c(-c3c(Cl)cc4c(N5CCNCC5)nc(N5CC(N6C[C@H]7COC[C@@H](C6)N7)C5)nc4c3F)cccc2s1` [Example 87, 4-(2-(3-((1R,5S)-3-oxa-7,9-diazabicyclo[3.3.1]nonan-7-yl)azetidin-1-yl)-6-chloro-8-fluoro-4-(piperazin-1-yl)quinazolin-7-yl)benzo[d]thiazol-2-amine], for which the “Avg 2 h Coupled Exchange IC50” value was 701 nM.

`CCN1CCN(C2CN(c3nc(N4CCNCC4)c4cc(Cl)c(-c5cccc6sc(N)nc56)c(F)c4n3)C2)CC1` [Example 112, 4-[6-chloro-2-[3-(4-ethylpiperazin-1-yl)azetidin-1-yl]-8-fluoro-4-piperazin-1-yl-quinazolin-7-yl]-1,3-benzothiazol-2-amine]: the “Avg 2 h Coupled Exchange IC50” value worked out at 2460 nM.

In the case of `CC1(O)CN(C2CN(c3nc(N4CCNCC4)c4cc(Cl)c(-c5cccc6sc(N)nc56)c(F)c4n3)C2)C1` [Example 86, 1-[1-[7-(2-amino-1,3-benzothiazol-4-yl)-6-chloro-8-fluoro-4-piperazin-1-yl-quinazolin-2-yl]azetidin-3-yl]-3-methyl-azetidin-3-ol], the “Avg 2 h Coupled Exchange IC50” value was 648 nM.

As to `Nc1nc2c(-c3c(Cl)cc4c(N5CCNCC5)nc(N5CC6(CCN6)C5)nc4c3F)cccc2s1` [Example 102, 4-[6-chloro-2-(1,6-diazaspiro[3.3]heptan-6-yl)-8-fluoro-4-piperazin-1-yl-quinazolin-7-yl]-1,3-benzothiazol-2-amine], the “Avg 2 h Coupled Exchange IC50” value worked out at 1550 nM.

Consider `Nc1nc2c(-c3c(Cl)cc4c(N5CCNCC5)nc(N5C[C@@H]6NCC[C@H]65)nc4c3F)cccc2s1` [Example 93, 4-[6-chloro-2-[(1S,5R)-2,6-diazabicyclo[3.2.0]heptan-6-yl]-8-fluoro-4-piperazin-1-yl-quinazolin-7-yl]-1,3-benzothiazol-2-amine], for which the “Avg 2 h Coupled Exchange IC50” value was 1140 nM.

Consider `CN1CCC[C@H]1COc1nc(N2C3CCC2C(=O)NC3)c2cc(Cl)c(-c3cccc4sc(N)nc34)c(F)c2n1` (stereo partly drawn) [Example 82, 8-(7-(2-aminobenzo[d]thiazol-4-yl)-6-chloro-8-fluoro-2-(((S)-1-methylpyrrolidin-2-yl)methoxy)quinazolin-4-yl)-3,8-diazabicyclo[3.2.1]octan-2-one], for which the “Avg 2 h Coupled Exchange IC50” value was determined as 471 nM.

For the compound `CCC1(N)CN(c2nc(N3CCNCC3)c3cc(Cl)c(-c4cccc5sc(N)nc45)c(F)c3n2)C1` [Example 81, 4-[2-(3-amino-3-ethyl-azetidin-1-yl)-6-chloro-8-fluoro-4-piperazin-1-yl-quinazolin-7-yl]-1,3-benzothiazol-2-amine], the “Avg 2 h Coupled Exchange IC50” value worked out at 437 nM.

`Nc1nc2c(-c3c(Cl)cc4c(N5CCNCC5)nc(N5CC(N)C5)nc4c3F)cccc2s1` [Example 96, 4-[2-(3-aminoazetidin-1-yl)-6-chloro-8-fluoro-4-piperazin-1-yl-quinazolin-7-yl]-1,3-benzothiazol-2-amine]: the “Avg 2 h Coupled Exchange IC50” value was 1251 nM.

For the compound `Nc1nc2c(-c3c(Cl)cc4c(N5CCNCC5)nc(N5CC6(CCCN6)C5)nc4c3F)cccc2s1` [Example 84, 4-[6-chloro-2-(2,5-diazaspiro[3.4]octan-2-yl)-8-fluoro-4-piperazin-1-yl-quinazolin-7-yl]-1,3-benzothiazol-2-amine], the “Avg 2 h Coupled Exchange IC50” value is 567 nM.

On to `CNC1CN(c2nc(N3CCNCC3)c3cc(Cl)c(-c4cccc5sc(N)nc45)c(F)c3n2)C1` [Example 91, 4-[6-chloro-8-fluoro-2-[3-(methylamino)azetidin-1-yl]-4-piperazin-1-yl-quinazolin-7-yl]-1,3-benzothiazol-2-amine], for which the “Avg 2 h Coupled Exchange IC50” value came to 1013 nM.

For `Nc1nc2c(-c3c(Cl)cc4c(N5CCNCC5)nc(N5CC(N6CCCC(O)C6)C5)nc4c3F)cccc2s1` (stereo not shown) [Example 92, 1-[1-[7-(2-amino-1,3-benzothiazol-4-yl)-6-chloro-8-fluoro-4-piperazin-1-yl-quinazolin-2-yl]azetidin-3-yl]piperidin-3-ol], the “Avg 2 h Coupled Exchange IC50” value came out at 1020 nM.

Turning to `Nc1nc2c(-c3c(Cl)cc4c(N5CCNCC5)nc(N5CC6(CCOCC(=O)N6)C5)nc4c3F)cccc2s1` [Example 105, 2-[7-(2-amino-1,3-benzothiazol-4-yl)-6-chloro-8-fluoro-4-piperazin-1-yl-quinazolin-2-yl]-8-oxa-2,5-diazaspiro[3.6]decan-6-one], the “Avg 2 h Coupled Exchange IC50” value came out at 1850 nM.

On to `Nc1nc2c(-c3c(Cl)cc4c(N5CCNCC5)nc(N5CC(N6CC(O)C6)C5)nc4c3F)cccc2s1` [Example 85, 1-[1-[7-(2-amino-1,3-benzothiazol-4-yl)-6-chloro-8-fluoro-4-piperazin-1-yl-quinazolin-2-yl]azetidin-3-yl]azetidin-3-ol], for which the “Avg 2 h Coupled Exchange IC50” value is 633 nM.

Take `Nc1nc2c(-c3c(Cl)cc4c(N5CCNCC5)nc(N[C@H]5CCc6ncsc6C5)nc4c3F)cccc2s1` [Example 110, 4-[6-chloro-8-fluoro-4-piperazin-1-yl-2-[[(6S)-4,5,6,7-tetrahydro-1,3-benzothiazol-6-yl]amino]quinazolin-7-yl]-1,3-benzothiazol-2-amine]: the “Avg 2 h Coupled Exchange IC50” value was found to be 2180 nM.
